Data published in patent US20160222056A1, “SUBSTITUTED PHENYLALANINE DERIVATIVES” (BAYER PHARMA AKTIENGESELLSCHAFT, priority 2013, published 2016).
Where a name gives a salt, the structure may show the parent alone.

Assays:
human factor XIa = biological target: T1, human factor XIa (Homo sapiens, UniProt P03951); assay: Measurement of FXIa inhibition (fluorogenic peptide substrate); type: biochemical; details: human factor XIa from Kordia, substrate Boc-Glu(OBzl)-Ala-Arg-AMC, 30 min at 22° C.; read-out: IC50 (FXIa inhibition)
T1 construct: purchased Kordia
T1 sequence (P03951 388-625 limits assumed): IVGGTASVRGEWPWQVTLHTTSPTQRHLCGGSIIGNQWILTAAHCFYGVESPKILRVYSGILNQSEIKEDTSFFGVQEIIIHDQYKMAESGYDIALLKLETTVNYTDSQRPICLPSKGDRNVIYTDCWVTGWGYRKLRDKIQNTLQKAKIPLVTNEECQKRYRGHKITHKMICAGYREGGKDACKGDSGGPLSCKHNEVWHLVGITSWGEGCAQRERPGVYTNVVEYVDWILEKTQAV
T1 sequence (P03951 19-387 partner limits assumed): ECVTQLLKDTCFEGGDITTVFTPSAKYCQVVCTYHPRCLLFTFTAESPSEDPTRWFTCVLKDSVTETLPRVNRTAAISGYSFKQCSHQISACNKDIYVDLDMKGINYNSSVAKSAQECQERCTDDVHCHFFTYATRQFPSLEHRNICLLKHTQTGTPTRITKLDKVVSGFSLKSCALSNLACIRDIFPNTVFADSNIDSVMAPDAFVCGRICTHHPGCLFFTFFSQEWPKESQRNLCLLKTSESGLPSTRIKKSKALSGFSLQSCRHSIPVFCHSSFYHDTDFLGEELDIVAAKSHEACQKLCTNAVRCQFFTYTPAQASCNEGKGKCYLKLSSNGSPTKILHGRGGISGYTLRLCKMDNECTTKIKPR
Method: To determine the factor XIa inhibition of the substances according to the invention, a biochemical test system is used which utilizes the reaction of a peptidic factor XIa substrate to determine the enzymatic activity of human factor XIa. Here, factor XIa cleaves from the peptic factor XIa substrate the C-terminal aminomethylcoumarin (AMC), the fluorescence of which is measured. The determinations are carried out in microtitre plates.
Test substances are dissolved in dimethyl sulphoxide and serially diluted in dimethyl sulphoxide (3000 μM to 0.0078 μM; resulting final concentrations in the test: 50 μM to 0.00013 μM). In each case 1 μl of the diluted substance solutions are placed into the wells of white microtitre plates from Greiner (384 wells). Subsequently, the following are added successively: 20 μl of assay buffer (50 mmol/1 Tris buffer pH 7.4; 100 mmol/1 sodium chloride; 5 mmol/1 calcium chloride; 0.1% bovine serum albumin) and 20 μl of factor XIa from Kordia (0.45 nM in assay buffer). After 15 min of incubation, the enzyme reaction is started by addition of 20 μl of the factor XIa substrate Boc-Glu(OBzl)-Ala-Arg-AMC dissolved in assay buffer (10 μM in assay buffer) from Bachem, the mixture is incubated at room temperature (22° C.) for 30 min and fluorescence is then measured (excitation: 360 nm, emission: 460 nm). The measured emissions of the test batches with test substance are compared to those of control batches without test substance (only dimethyl sulphoxide instead of test substance in dimethyl sulphoxide), and the IC50 values are calculated from the concentration/activity relationships.

human and animal plasma = assay: Anticoagulatory activity: activated partial thromboplastin time (aPTT) in plasma; type: biochemical; details: in vitro in plasma, C.K. Prest kit, 37° C. for 3 minutes; plasma species of Table B not stated
Method: The anticoagulatory activity of the test substances is determined in vitro in human and animal plasma (for example mouse, rat, rabbit, pig and dog plasma). To this end, blood is drawn off in a mixing ratio of sodium citrate/blood of 1:9 using a 0.11 molar sodium citrate solution as receiver. Immediately after the blood has been drawn off, it is mixed thoroughly and centrifuged at about 4000 g for 15 minutes. The supernatant is pipetted off.
The activated partial thromboplastin time (aPTT) is determined in the presence of varying concentrations of test substance or the corresponding solvent using a commercial test kit (C.K. Prest from Diagnostica Stago). The test compounds are incubated with the plasma and the PTT reagent (cephalin, kaolin) at 37° C. for 3 minutes. Coagulation is then started by addition of 25 mM aqueous calcium chloride, and the time when coagulation occurs is determined. The concentration of test substance which brings about a 1.5-fold extension of the aPTT is determined.

Row | IC50 (human factor XIa) | Structure (SMILES) | aPTT (concentration of test substance which brings about a 1.5-fold extension of the aPTT) (human and animal plasma)
1 | 2 nM | CCN(CC)CCNC(=O)c1ccc(-c2ccc(C[C@H](NC(=O)[C@H]3CC[C@H](CN)CC3)C(=O)Nc3ccc(-c4nn[nH]n4)cc3)cc2)c(C(F)(F)F)n1 [Example 1, N-alpha-{[trans-4-(Aminomethyl)cyclohexyl]carbonyl}-4-[6-{[2-(diethylamino)ethyl]carbamoyl}-2-(trifluoromethyl)pyridin-3-yl]-N-[4-(2H-tetrazol-5-yl)phenyl]-L-phenylalaninamide hydrochloride] | 0.1 µmol/L
2 | 1.9 nM | Cc1nc(C(=O)NC2CCC(N(C)C)CC2)ccc1-c1ccc(C[C@H](NC(=O)[C@H]2CC[C@H](CN)CC2)C(=O)Nc2ccc(-c3nn[nH]n3)cc2)cc1 (stereo partly drawn) [Example 2, N-alpha-{[trans-4-(Aminomethyl)cyclohexyl]carbonyl}-4-(6-{[4-(dimethylamino)cyclohexyl]-carbamoyl}-2-methylpyridin-3-yl)-N-[4-(2H-tetrazol-5-yl)phenyl]-L-phenylalaninamide hydrochloride] | 0.08 µmol/L
3 | 5.6 nM | CCN(CC)CCNC(=O)c1ccc(-c2ccc(C[C@H](NC(=O)[C@H]3CC[C@H](CN)CC3)C(=O)Nc3ccc(-c4nn[nH]n4)cc3)cc2)c(C)n1 [Example 3, N-alpha-{[trans-4-(Aminomethyl)cyclohexyl]carbonyl}-4-(6-{[2-(diethylamino)ethyl]carbamoyl}-2-methylpyridin-3-yl)-N-[4-(2H-tetrazol-5-yl)phenyl]-L-phenylalaninamide hydrochloride] | 0.16 µmol/L
4 | 1.3 nM | Cc1nc(C(=O)N[C@H]2CCCNC2=O)ccc1-c1ccc(C[C@H](NC(=O)[C@H]2CC[C@H](CN)CC2)C(=O)Nc2ccc(-c3nn[nH]n3)cc2)cc1 [Example 4, N-alpha-{[trans-4-(Aminomethyl)cyclohexyl]carbonyl}-4-(2-methyl-6-{[(3S)-2-oxopiperidin-3-yl]carbamoyl}pyridin-3-yl)-N-[4-(2H-tetrazol-5-yl)phenyl]-L-phenylalaninamide hydrochloride] | 0.2 µmol/L
5 | 1.9 nM | Cc1cc(C(=O)NC2CCNCC2)ncc1-c1ccc(C[C@H](NC(=O)[C@H]2CC[C@H](CN)CC2)C(=O)Nc2ccc(-c3nnn[nH]3)cc2)cc1 [Example 5, N-alpha-{[trans-4-(Aminomethyl)cyclohexyl]carbonyl}-4-[4-methyl-6-(piperidin-4-ylcarbamoyl)pyridin-3-yl]-N-[4-(1H-tetrazol-5-yl)phenyl]-L-phenylalaninamide hydrochloride] | 0.04 µmol/L
6 | 4.1 nM | Cc1cc(C(=O)N2CC(C)NC(C)C2)ncc1-c1ccc(C[C@H](NC(=O)C2CCC(CN)CC2)C(=O)Nc2ccc(-c3nnn[nH]3)cc2)cc1 (stereo partly drawn) [Example 6, N-alpha-{[trans-4-(Aminomethyl)cyclohexyl]carbonyl}-4-{6-[(3,5-dimethylpiperazin-1-yl)carbonyl]-4-methylpyridin-3-yl}-N-[4-(1H-tetrazol-5-yl)phenyl]-L-phenylalaninamide hydrochloride] | 0.04 µmol/L
7 | 2.6 nM | CCN(CC)C1CCC(NC(=O)c2cc(C)c(-c3ccc(C[C@H](NC(=O)[C@H]4CC[C@H](CN)CC4)C(=O)Nc4ccc(-c5nnn[nH]5)cc4)cc3)cn2)CC1 (stereo partly drawn) [Example 7, N-alpha-{[trans-4-(Aminomethyl)cyclohexyl]carbonyl}-4-(6-{[4-(diethylamino)cyclohexyl]-carbamoyl}-4-methylpyridin-3-yl)-N-[4-(1H-tetrazol-5-yl)phenyl]-L-phenylalaninamide hydrochloride] | 0.04 µmol/L
8 | 2.2 nM | Cc1cc(C(=O)NC2CCNCC2F)ncc1-c1ccc(C[C@H](NC(=O)C2CCC(CN)CC2)C(=O)Nc2ccc(-c3nnn[nH]3)cc2)cc1 (stereo partly drawn) [Example 8, N-alpha-{[trans-4-(Aminomethyl)cyclohexyl]carbonyl}-4-{6-[(3-fluoropiperidin-4-yl)carbamoyl]-4-methylpyridin-3-yl}-N-[4-(1H-tetrazol-5-yl)phenyl]-L-phenylalaninamide hydrochloride] | 0.05 µmol/L
9 | 5.2 nM | CCN(CC)CCCNC(=O)c1cc(C)c(-c2ccc(C[C@H](NC(=O)[C@H]3CC[C@H](CN)CC3)C(=O)Nc3ccc(-c4nnn[nH]4)cc3)cc2)cn1 [Example 9, N-alpha-{[trans-4-(Aminomethyl)cyclohexyl]carbonyl}-4-(6-{[3-(diethylamino)propyl]-carbamoyl}-4-methylpyridin-3-yl)-N-[4-(1H-tetrazol-5-yl)phenyl]-L-phenylalaninamide hydrochloride] | 0.05 µmol/L
10 | 5.5 nM | Cc1nc(C(=O)NC2CCN(C)CC2)ccc1-c1ccc(C[C@H](NC(=O)[C@H]2CC[C@H](CN)CC2)C(=O)Nc2ccc(-c3nnn[nH]3)cc2)cc1 [Example 30, N-alpha-{[trans-4-(Aminomethyl)cyclohexyl]carbonyl}-4{-2-methyl-6-[(1-methylpiperidin-4-yl)carbamoyl]pyridin-3-yl}-N-[4-(1H-tetrazol-5-yl)phenyl]-L-phenylalaninamide hydrochloride] | –
11 | 1.9 nM | Cc1nc(C(=O)N[C@H]2CC[C@H](N)CC2)ccc1-c1ccc(C[C@H](NC(=O)[C@H]2CC[C@H](CN)CC2)C(=O)Nc2ccc(-c3nn[nH]n3)cc2)cc1 [Example 31, 4-{6-[(trans-4-Aminocyclohexyl)carbamoyl]-2-methylpyridin-3-yl}-N-alpha-{[trans-4-(aminomethyl)cyclohexyl]carbonyl}-N-[4-(2H-tetrazol-5-yl)phenyl]-L-phenylalaninamide hydrochloride] | –
12 | 1.8 nM | Cc1cc(C(=O)N2CCNC(=O)C2)ncc1-c1ccc(C[C@H](NC(=O)[C@H]2CC[C@H](CN)CC2)C(=O)Nc2ccc(-c3nnn[nH]3)cc2)cc1 [Example 32, N-alpha-{[trans-4-(Aminomethyl)cyclohexyl]carbonyl}-4-{4-methyl-6-[(3-oxopiperazin-1-yl)carbonyl]pyridin-3-yl}-N-[4-(1H-tetrazol-5-yl)phenyl]-L-phenylalaninamide hydrochloride] | –

Row | Structure (SMILES) | IC50 (human factor XIa) | aPTT (concentration of test substance which brings about a 1.5-fold extension of the aPTT) (human and animal plasma)
13 | Cc1cc(C(=O)NC2CC3CCC(C2)N3)ncc1-c1ccc(CC(NC(=O)C2CCC(CN)CC2)C(=O)Nc2ccc(-c3nnn[nH]3)cc2)cc1 [Example 10, N-alpha-{[trans-4-(Aminomethyl)cyclohexyl]carbonyl}-4-{6-[(1R,5S)-8-azabicyclo[3.2.1]oct-3-ylcarbamoyl]-4-methylpyridin-3-yl}-N-[4-(1H-tetrazol-5-yl)phenyl]-L-phenylalaninamide hydrochloride] | 3 nM | 0.07 µmol/L
14 | Cc1cc(C(=O)NC2CC3COCC(C2)N3)ncc1-c1ccc(C[C@H](NC(=O)C2CCC(CN)CC2)C(=O)Nc2ccc(-c3nnn[nH]3)cc2)cc1 (stereo partly drawn) [Example 11, N-alpha-{[trans-4-(Aminomethyl)cyclohexyl]carbonyl}-4-[4-methyl-6-(3-oxa-9-azabicyclo[3.3.1]non-7-ylcarbamoyl)pyridin-3-yl]-N-[4-(1H-tetrazol-5-yl)phenyl]-L-phenylalaninamide hydrochloride] | 5.2 nM | 0.07 µmol/L
